# Data as given in article PMC11643024 (bioRxiv, 2024).
# Test system: H1975-OR xenografts
# Test: H1975-OR xenograft tumor growth
# Format: in vivo, mice
# Conditions: osimertinib p.o. 5 mg/kg daily, NGI-189 i.p. 10 mg/kg every other day
structure (smiles),measurement,value
C=CC(=O)Nc1cc(Nc2nccc(-c3cn(C)c4ccccc34)n2)c(OC)cc1N(C)CCN(C)C [osimertinib],tumor response,did not respond
